Experimental data as given in ChEMBL document CHEMBL5046289, “Targeting the S2 Subsite Enables the Structure-Based Discovery of Novel Highly Selective Factor XIa Inhibitors” (J Med Chem, 2022).
Activity calls are given as the source filed them. The rule behind the calls is not given here.

How the values were obtained:
[1] = species: Homo sapiens; experiment: Selectivity index, ratio of IC50 for plasma kallikrein (unknown origin) to IC50 for coagulation factor XIa (unknown origin)
[2] = molecular target: T1, Coagulation factor XII (Homo sapiens) (UniProt P00748); experiment: Inhibition of coagulation factor XIIa (unknown origin) assessed as chromogenic substrate using TH5253 as substrate at 1 mM incubated for 1 hr by spectrophotometer based microplate reader method
T1 sequence (whole entry): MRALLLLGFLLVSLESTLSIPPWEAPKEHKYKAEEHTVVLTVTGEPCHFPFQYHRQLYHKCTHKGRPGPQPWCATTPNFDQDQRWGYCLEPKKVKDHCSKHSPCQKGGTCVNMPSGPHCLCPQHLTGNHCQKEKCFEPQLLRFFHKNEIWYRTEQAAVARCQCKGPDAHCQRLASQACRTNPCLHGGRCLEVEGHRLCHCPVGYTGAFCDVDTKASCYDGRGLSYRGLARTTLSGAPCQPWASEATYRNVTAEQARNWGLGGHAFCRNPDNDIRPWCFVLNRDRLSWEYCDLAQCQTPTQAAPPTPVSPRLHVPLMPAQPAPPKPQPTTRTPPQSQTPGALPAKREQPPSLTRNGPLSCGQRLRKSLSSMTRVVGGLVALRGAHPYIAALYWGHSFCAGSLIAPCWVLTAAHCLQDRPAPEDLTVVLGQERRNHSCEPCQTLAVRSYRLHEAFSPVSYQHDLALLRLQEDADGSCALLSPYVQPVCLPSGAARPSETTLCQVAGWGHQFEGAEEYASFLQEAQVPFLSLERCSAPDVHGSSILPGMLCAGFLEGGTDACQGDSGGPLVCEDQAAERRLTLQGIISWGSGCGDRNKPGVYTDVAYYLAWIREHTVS

[3] = species: Homo sapiens; experiment: Selectivity index, ratio of IC50 for coagulation factor IXa (unknown origin) to IC50 for coagulation factor XIa (unknown origin)
[4] = species: Homo sapiens; experiment: Selectivity index, ratio of IC50 for thrombin (unknown origin) to IC50 for coagulation factor XIa (unknown origin)
[5] = molecular target: T2, Prothrombin (Homo sapiens, UniProt P00734); experiment: Inhibition of thrombin (unknown origin) assessed as chromogenic substrate using CS-10(38) as substrate at 1 mM incubated for 1 hr by spectrophotometer based microplate reader method
[6] = molecular target: Coagulation factor IX (Homo sapiens) (UniProt P00740); experiment: Inhibition of coagulation factor IXa (unknown origin) assessed as chromogenic substrate using ADG299 as substrate at 1 mM incubated for 1 hr by spectrophotometer based microplate reader method
Chain of Coagulation factor IX (Homo sapiens) (P00740 47-191 limits assumed): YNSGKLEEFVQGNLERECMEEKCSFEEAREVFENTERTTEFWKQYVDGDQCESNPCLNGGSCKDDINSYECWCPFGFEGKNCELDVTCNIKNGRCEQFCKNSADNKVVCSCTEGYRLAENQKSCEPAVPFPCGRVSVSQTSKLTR
Chain of Coagulation factor IX (Homo sapiens) (P00740 227-461 limits assumed): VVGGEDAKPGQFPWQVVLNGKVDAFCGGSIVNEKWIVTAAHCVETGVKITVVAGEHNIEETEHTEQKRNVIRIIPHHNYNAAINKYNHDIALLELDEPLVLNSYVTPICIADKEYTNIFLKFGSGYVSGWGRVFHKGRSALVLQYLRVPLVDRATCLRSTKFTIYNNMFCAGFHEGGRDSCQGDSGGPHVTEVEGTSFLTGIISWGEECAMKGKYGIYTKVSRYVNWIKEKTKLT

[7] = molecular target: T2, Prothrombin; experiment: Inhibition of thrombin (unknown origin) assessed as chromogenic substrate using CS-10(38) as substrate incubated for 1 hr by spectrophotometer based microplate reader method
[8] = species: Homo sapiens; experiment: Selectivity index, ratio of IC50 for coagulation factor VIIa (unknown origin) to IC50 for coagulation factor XIa (unknown origin)
[9] = molecular target: T3, Coagulation factor VII (Homo sapiens) (UniProt P08709); experiment: Inhibition of coagulation factor VIIa (unknown origin) assessed as chromogenic substrate using chromozyme t-PA as substrate at 1 mM incubated for 1 hr by spectrophotometer based microplate reader method
T3 sequence (whole entry): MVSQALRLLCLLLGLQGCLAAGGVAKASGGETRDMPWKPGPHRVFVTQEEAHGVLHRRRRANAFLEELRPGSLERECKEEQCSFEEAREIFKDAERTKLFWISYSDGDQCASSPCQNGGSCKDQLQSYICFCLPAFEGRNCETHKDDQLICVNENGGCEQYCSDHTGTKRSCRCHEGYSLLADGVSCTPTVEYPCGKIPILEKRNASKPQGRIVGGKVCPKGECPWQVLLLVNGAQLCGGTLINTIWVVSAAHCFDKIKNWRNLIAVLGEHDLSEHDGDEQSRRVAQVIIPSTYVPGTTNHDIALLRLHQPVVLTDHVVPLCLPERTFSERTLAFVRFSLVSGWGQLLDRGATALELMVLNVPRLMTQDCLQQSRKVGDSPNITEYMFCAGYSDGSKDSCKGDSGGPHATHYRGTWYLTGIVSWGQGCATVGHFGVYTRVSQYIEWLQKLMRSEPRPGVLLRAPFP

[10] = molecular target: Plasma kallikrein (Homo sapiens, UniProt P03952); experiment: Inhibition of plasma kallikrein (unknown origin) assessed as chromogenic substrate hydrolysis using CS-31(02) as substrate incubated for 1 hr by spectrophotometer based microplate reader method
Chain of Plasma kallikrein (P03952 20-390 limits assumed): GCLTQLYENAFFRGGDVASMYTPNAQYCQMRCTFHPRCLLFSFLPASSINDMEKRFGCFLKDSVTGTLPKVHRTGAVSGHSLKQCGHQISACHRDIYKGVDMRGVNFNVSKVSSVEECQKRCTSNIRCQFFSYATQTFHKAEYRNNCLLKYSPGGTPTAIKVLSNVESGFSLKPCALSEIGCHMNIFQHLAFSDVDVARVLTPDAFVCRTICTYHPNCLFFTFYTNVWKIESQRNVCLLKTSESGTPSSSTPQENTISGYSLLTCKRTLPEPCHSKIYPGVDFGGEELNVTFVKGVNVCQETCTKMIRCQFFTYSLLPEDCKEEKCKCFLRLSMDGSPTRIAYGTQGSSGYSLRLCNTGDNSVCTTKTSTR
Chain of Plasma kallikrein (P03952 391-638 limits assumed): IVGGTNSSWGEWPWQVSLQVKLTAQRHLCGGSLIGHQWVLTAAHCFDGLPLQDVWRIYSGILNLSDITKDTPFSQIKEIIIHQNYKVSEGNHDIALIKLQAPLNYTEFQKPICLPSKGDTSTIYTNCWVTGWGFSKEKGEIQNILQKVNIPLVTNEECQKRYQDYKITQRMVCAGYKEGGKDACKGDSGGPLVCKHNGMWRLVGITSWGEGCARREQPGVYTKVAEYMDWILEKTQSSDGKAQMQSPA

[11] = molecular target: Coagulation factor X (Homo sapiens, UniProt P00742); experiment: Inhibition of coagulation factor Xa (unknown origin) assessed as chromogenic substrate using CS-11(22) as substrate incubated for 1 hr by spectrophotometer based microplate reader method
Chain of Coagulation factor X (P00742 41-179 limits assumed): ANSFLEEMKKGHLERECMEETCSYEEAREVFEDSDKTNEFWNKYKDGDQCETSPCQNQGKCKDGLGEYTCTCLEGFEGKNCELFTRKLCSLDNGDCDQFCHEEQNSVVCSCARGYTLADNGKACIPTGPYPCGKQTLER
Chain of Coagulation factor X (P00742 235-488 limits assumed): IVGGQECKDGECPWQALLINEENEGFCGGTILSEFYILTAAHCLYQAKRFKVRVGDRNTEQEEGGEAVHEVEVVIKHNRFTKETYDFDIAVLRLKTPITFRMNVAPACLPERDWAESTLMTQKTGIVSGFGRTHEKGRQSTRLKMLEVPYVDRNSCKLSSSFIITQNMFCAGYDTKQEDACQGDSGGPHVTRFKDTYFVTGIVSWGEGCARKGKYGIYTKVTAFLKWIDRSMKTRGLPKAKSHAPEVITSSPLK

[12] = species: Homo sapiens; experiment: Selectivity index, ratio of IC50 for coagulation factor Xa (unknown origin) to IC50 for coagulation factor XIa (unknown origin)
[13] = molecular target: T4, Coagulation factor XI (Homo sapiens, UniProt P03951); experiment: Inhibition of coagulation factor XIa (unknown origin) assessed as chromogenic substrate hydrolysis using CS-21(66) as substrate incubated for 1 hr by spectrophotometer based microplate reader method
T4 sequence (P03951 19-387 limits assumed): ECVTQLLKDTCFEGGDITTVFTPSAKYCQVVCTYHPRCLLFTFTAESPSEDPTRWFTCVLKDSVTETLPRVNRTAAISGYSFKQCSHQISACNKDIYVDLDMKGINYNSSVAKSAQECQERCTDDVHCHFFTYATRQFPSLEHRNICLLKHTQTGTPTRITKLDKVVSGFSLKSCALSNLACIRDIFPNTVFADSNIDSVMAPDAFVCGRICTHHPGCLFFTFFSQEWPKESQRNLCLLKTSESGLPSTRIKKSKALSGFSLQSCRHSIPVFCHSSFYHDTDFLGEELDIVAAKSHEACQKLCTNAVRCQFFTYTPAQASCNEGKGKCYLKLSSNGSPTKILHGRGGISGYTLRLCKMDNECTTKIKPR
T4 sequence (P03951 388-625 limits assumed): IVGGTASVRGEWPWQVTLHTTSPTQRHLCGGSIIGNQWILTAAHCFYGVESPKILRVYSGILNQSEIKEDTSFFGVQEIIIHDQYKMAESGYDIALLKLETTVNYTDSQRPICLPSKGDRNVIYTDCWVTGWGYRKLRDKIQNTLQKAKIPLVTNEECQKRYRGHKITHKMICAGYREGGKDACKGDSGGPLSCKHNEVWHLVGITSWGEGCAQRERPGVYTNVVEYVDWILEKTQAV

[14] = species: Homo sapiens; experiment: Selectivity index, ratio of IC50 for coagulation factor XIIa (unknown origin) to IC50 for coagulation factor XIa (unknown origin)
[15] = molecular target: Serine protease 1 (Homo sapiens) (UniProt P07477); experiment: Inhibition of trypsin (unknown origin) assessed as chromogenic substrate using CS-11(22) as substrate at 1 mM incubated for 1 hr by spectrophotometer based microplate reader method
Chain of Serine protease 1 (Homo sapiens) (P07477 whole entry): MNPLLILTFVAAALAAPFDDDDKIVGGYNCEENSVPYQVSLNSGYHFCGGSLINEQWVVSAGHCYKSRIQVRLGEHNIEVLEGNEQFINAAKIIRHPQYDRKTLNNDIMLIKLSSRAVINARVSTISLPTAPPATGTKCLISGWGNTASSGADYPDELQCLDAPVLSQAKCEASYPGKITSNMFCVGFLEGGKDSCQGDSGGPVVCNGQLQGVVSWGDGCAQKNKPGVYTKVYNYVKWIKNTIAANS

[16] = species: Homo sapiens; experiment: Selectivity index, ratio of IC50 for trypsin (unknown origin) to IC50 for coagulation factor XIa (unknown origin)
[17] = molecular target: T4, Coagulation factor XI; details: dose 50.0 nM, time 1.0 hrs

- Ratio IC50 [1]: 756
- inhibition [2]: inactive
- Ratio IC50 [3]: > 5000
- Ratio IC50 [4]: > 5000
- inhibition [5]: inactive
- inhibition [6]: inactive
- inhibition [7]: inactive
- Ratio IC50 [8]: > 5000
- inhibition [9]: inactive
- IC50 [10]: 14 µM
- IC50 [11]: 980 µM
- Ratio IC50 [12]: > 5000
- IC50 [13]: 0.0185 µM
- Ratio IC50 [14]: > 5000
- inhibition [15]: inactive
- Ratio IC50 [16]: > 5000
- inhibition [17]: 52.3%
Structure (SMILES): O=C(/C=C/c1cc(Cl)ccc1-n1cnnn1)N[C@@H](CC(=O)N1CCSCC1)C(=O)Nc1ccc(C(=O)O)cc1
